Measured values taken from patent publication US20190292155A1, “THERAPEUTIC INHIBITORY COMPOUNDS” (LifeSci Pharmaceuticals, Inc., priority 2016, published 2019).

Biological target: T1, human complement factor D (Homo sapiens, UniProt P00746)
T1 construct: purchased R&D Systems 1824-SE
Test: In vitro enzyme inhibition of human complement factor D (Z-Lys-SBzl/DTNB, A405)
Format: biochemical
Conditions: biochemical assay, substrate Z-Lys-SBzl; read-out: CFD IC50
Description: The ability of the compounds disclosed herein to inhibit human complement factor D inhibitory activity was quantified according to the 12-step protocol provided below. • 1. Prepare assay buffer: 50 mM Tris/HCl, pH 7.5, 1 M NaCl. • 2. […] Then dilute the serial concentrations of Nafamostat Mesilate 20-fold in assay buffer. • 3. […] 0.5% DMSO was in each well finally. • 4. […] Add 10 μl diluted test compounds duplicated into the 96-well plate. […] 0.5% DMSO was in each well finally. • 6. Dilute 20 mM substrate Z-Lys-SBzl (Bachem, Cat# M-1300) to 200 μM in assay buffer with 200 μM DTNB (Sigma, Catalog# D8130). • 7. […] Add 40 μl diluted Complement Factor D in the 96-well plate. • 8. Positive control well contains Complement Factor D without test compound. Negative control well contains neither Complement Factor D nor test compound. Using assay buffer, bring the total volume of all controls to 50 al. • 9. Pre-incubate the plate for 5 min at room temperature. • 10. Add 50 μl of diluted substrate/DTNB mixture into each well. […] For kinetic reading: Immediately start measuring absorbance (A405 nm) continuously and record data every 30 sec for 60 min. • 12. Data analysis • Inhibition activity of compound was evaluated by IC50. IC50 was calculated according the dose-response curve of compound fitted using GraphPadPrism with “log(inhibitor)-response (variable slope)” equation. • % inhibition was calculated by using following equation:
[formula] • Mean(NC): The average value of the negative control wells' A405 nm values. • Mean(PC): The average value of the positive control wells' A405 nm values.

T1 sequence (P00746 26-253): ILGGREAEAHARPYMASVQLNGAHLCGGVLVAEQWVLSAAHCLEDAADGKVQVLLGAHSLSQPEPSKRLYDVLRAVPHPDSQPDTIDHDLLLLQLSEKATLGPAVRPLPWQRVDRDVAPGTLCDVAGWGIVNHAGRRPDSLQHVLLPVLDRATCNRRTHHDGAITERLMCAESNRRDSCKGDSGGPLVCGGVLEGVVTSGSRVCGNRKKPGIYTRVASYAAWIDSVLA

| SMILES | IC50 |
| --- | --- |
| CNCCN(CC(=O)Nc1cccc(Cl)n1)C(=O)Cn1nc(C(N)=O)c2ccccc21 [Example 23, 1-(2-((2-((6-chloropyridin-2-yl)amino)-2-oxoethyl)(2-(methylamino)ethyl)amino)-2-oxoethyl)-1H-indazole-3-carboxamide] | 1 to 10 µM |
| CC(=O)NCCN(CC(=O)Nc1cccc(Cl)n1)C(=O)Cn1nc(C(N)=O)c2ccccc21 [Example 24, 1-(2-((2-acetamidoethyl)(2-((6-chloropyridin-2-yl)amino)-2-oxoethyl)amino)-2-oxoethyl)-1H-indazole-3-carboxamide] | 1 to 10 µM |
| NC(=O)c1nn(CC(=O)N(CC(=O)Nc2cccc(Cl)n2)Cc2ccncc2)c2ccccc12 [Example 25, 1-(2-((2-((6-chloropyridin-2-yl)amino)-2-oxoethyl)(pyridin-4-ylmethyl)amino)-2-oxoethyl)-1H-indazole-3-carboxamide] | > 10 µM |
| NC(=O)c1nn(CC(=O)N(CC(=O)Nc2cccc(Cl)n2)C2CCNC2)c2ccccc12 (centres unmarked) [Example 26, 1-(2-((2-((6-chloropyridin-2-yl)amino)-2-oxoethyl)(pyrrolidin-3-yl)amino)-2-oxoethyl)-1H-indazole-3-carboxamide] | 1 to 10 µM |
| NC(=O)c1nn(CC(=O)N(CC(=O)NCc2cccc(Cl)c2F)Cc2ccsc2)c2ccccc12 [Example 27, 1-(2-((2-((3-chloro-2-fluorobenzyl)amino)-2-oxoethyl)(thiophen-3-ylmethyl)amino)-2-oxoethyl)-1H-indazole-3-carboxamide] | 1 to 10 µM |
| NC(=O)c1nn(CC(=O)N(CC(=O)NCc2cccc(Cl)c2F)C2CCOCC2)c2ccccc12 [Example 29, 1-(2-((2-((3-chloro-2-fluorobenzyl)amino)-2-oxoethyl)(tetrahydro-2H-pyran-4-yl)amino)-2-oxoethyl)-1H-indazole-3-carboxamide] | 1 to 10 µM |
| NC(=O)c1nn(CC(=O)N(CC(=O)NCc2cccc(Cl)c2F)Cc2ccncc2)c2ccccc12 [Example 32, 1-(2-((2-((3-chloro-2-fluorobenzyl)amino)-2-oxoethyl)(pyridin-4-ylmethyl)amino)-2-oxoethyl)-1H-indazole-3-carboxamide] | 1 to 10 µM |
| NC(=O)c1nn(CC(=O)N(CC(=O)NCc2cccc(Cl)c2F)Cc2cccnc2)c2ccccc12 [Example 35, 1-(2-((2-((3-chloro-2-fluorobenzyl)amino)-2-oxoethyl)(pyridin-3-ylmethyl)amino)-2-oxoethyl)-1H-indazole-3-carboxamide] | 1 to 10 µM |
| NC(=O)c1nn(CC(=O)N(CC(=O)NCc2cccc(Cl)c2F)c2ccccc2)c2ccccc12 [Example 36, 1-(2-((2-((3-chloro-2-fluorobenzyl)amino)-2-oxoethyl)(phenyl)amino)-2-oxoethyl)-1H-indazole-3-carboxamide] | 1 to 10 µM |
| NC(=O)c1nn(CC(=O)N(CC(=O)NCc2cccc(Cl)c2F)C2CCNC2)c2ccccc12 (centres unmarked) [Example 37, 1-(2-((2-((3-chloro-2-fluorobenzyl)amino)-2-oxoethyl)(pyrrolidin-3-yl)amino)-2-oxoethyl)-1H-indazole-3-carboxamide] | 1 to 10 µM |
| C[C@H](C(=O)NCc1cccc(Cl)c1F)N(C(=O)Cn1nc(C(N)=O)c2ccccc21)C1CC1 [Example 38, (R)-1-(2-((1-((3-chloro-2-fluorobenzyl)amino)-1-oxopropan-2-yl)(cyclopropyl)amino)-2-oxoethyl)-1H-indazole-3-carboxamide] | 1 to 10 µM |
| C[C@@H](C(=O)NCc1cccc(Cl)c1F)N(C(=O)Cn1nc(C(N)=O)c2ccccc21)C1CC1 [Example 39, (S)-1-(2-((1-((3-chloro-2-fluorobenzyl)amino)-1-oxopropan-2-yl)(cyclopropyl)amino)-2-oxoethyl)-1H-indazole-3-carboxamide] | > 10 µM |
| NC(=O)c1cc(C(F)(F)F)n(CC(=O)N(CC(=O)NCc2cccc(Cl)c2F)C2CC2)n1 [Example 43, 1-(2-((2-((3-chloro-2-fluorobenzyl)amino)-2-oxoethyl)(cyclopropyl)amino)-2-oxoethyl)-5-(trifluoromethyl)-1H-pyrazole-3-carboxamide] | > 10 µM |

The remaining lines, values ahead:

| IC50 | SMILES |
| --- | --- |
| 1 to 10 µM | C[C@@H](C(=O)Nc1cccc(Cl)c1F)N(C)C(=O)Cn1nc(C(N)=O)c2ccccc21 [Example 2, (S)-1-(2-((1-((3-chloro-2-fluorophenyl)amino)-1-oxopropan-2-yl)(methyl)amino)-2-oxoethyl)-1H-indazole-3-carboxamide] |
| 1 to 10 µM | C[C@@H](C(=O)NCc1cccc(Cl)c1F)N(C)C(=O)Cn1nc(C(N)=O)c2ccccc21 [Example 3, (S)-1-(2-((1-((3-chloro-2-fluorobenzyl)amino)-1-oxopropan-2-yl)(methyl)amino)-2-oxoethyl)-1H-indazole-3-carboxamide] |
| 0.1 to 1 µM | NC(=O)c1nn(CC(=O)N(CC(=O)Nc2cccc(Cl)c2F)C2CC2)c2ccccc12 [Example 7, 1-(2-((2-((3-chloro-2-fluorophenyl)amino)-2-oxoethyl)(cyclopropyl)amino)-2-oxoethyl)-1H-indazole-3-carboxamide] |
| 1 to 10 µM | CC1(C)CC(O)CC(NC(=O)CN(C(=O)Cn2nc(C(N)=O)c3ccccc32)C2CC2)C1 (centres unmarked) [Example 9, 1-(2-(cyclopropyl(2-((5-hydroxy-3,3-dimethylcyclohexyl)amino)-2-oxoethyl)amino)-2-oxoethyl)-1H-indazole-3-carboxamide] |
| 1 to 10 µM | CC1(C)C[C@H](O)C[C@@H](NC(=O)CN(C(=O)Cn2nc(C(N)=O)c3ccccc32)C2CC2)C1 [Example 10, 1-(2-(cyclopropyl(2-(((1S,5S)-5-hydroxy-3,3-dimethylcyclohexyl)amino)-2-oxoethyl)amino)-2-oxoethyl)-1H-indazole-3-carboxamide] |
| 1 to 10 µM | NC(=O)c1nn(CC(=O)N(CCO)CC(=O)Nc2cccc(Cl)n2)c2ccccc12 [Example 13, 1-(2-((2-((6-chloropyridin-2-yl)amino)-2-oxoethyl)(2-hydroxyethyl)amino)-2-oxoethyl)-1H-indazole-3-carboxamide] |
| 1 to 10 µM | CN(CC(=O)Nc1cccc(Cl)n1)C(=O)Cn1nc(C(N)=O)c2ccccc21 [Example 14, 1-(2-((2-((6-chloropyridin-2-yl)amino)-2-oxoethyl)(methyl)amino)-2-oxoethyl)-1H-indazole-3-carboxamide] |
| 0.1 to 1 µM | CCN(CC(=O)Nc1cccc(Cl)n1)C(=O)Cn1nc(C(N)=O)c2ccccc21 [Example 15, 1-(2-((2-((6-chloropyridin-2-yl)amino)-2-oxoethyl)(ethyl)amino)-2-oxoethyl)-1H-indazole-3-carboxamide] |
| 1 to 10 µM | NC(=O)c1nn(CC(=O)N(CC(=O)Nc2cccc(Cl)n2)C2CCNCC2)c2ccccc12 [Example 17, 1-(2-((2-((6-chloropyridin-2-yl)amino)-2-oxoethyl)(piperidin-4-yl)amino)-2-oxoethyl)-1H-indazole-3-carboxamide] |
| 1 to 10 µM | NCCN(CC(=O)Nc1cccc(Cl)n1)C(=O)Cc1nn(C(N)=O)c2ccccc12 [Example 18, 3-(2-((2-aminoethyl)(2-((6-chloropyridin-2-yl)amino)-2-oxoethyl)amino)-2-oxoethyl)-1H-indazole-1-carboxamide] |
| 0.1 to 1 µM | NC(=O)n1nc(CC(=O)N(CC(=O)Nc2cccc(Cl)n2)C2CCCC2)c2ccccc21 [Example 19, 3-(2-((2-((6-chloropyridin-2-yl)amino)-2-oxoethyl)(cyclopentyl)amino)-2-oxoethyl)-1H-indazole-1-carboxamide] |
| 1 to 10 µM | NC(=O)n1nc(CC(=O)N(CC(=O)Nc2cccc(Cl)n2)C2CCOCC2)c2ccccc21 [Example 21, 3-(2-((2-((6-chloropyridin-2-yl)amino)-2-oxoethyl)(tetrahydro-2H-pyran-4-yl)amino)-2-oxoethyl)-1H-indazole-1-carboxamide] |
| 1 to 10 µM | NC(=O)c1nn(CC(=O)N(CC(=O)Nc2cccc(Cl)n2)C2CNC2)c2ccccc12 [Example 22, 1-(2-(azetidin-3-yl(2-((6-chloropyridin-2-yl)amino)-2-oxoethyl)amino)-2-oxoethyl)-1H-indazole-3-carboxamide] |
| 0.1 to 1 µM | NCCN(CC(=O)NCc1cccc(Cl)c1F)C(=O)Cn1nc(C(N)=O)c2ccccc21 [Example 31, 1-(2-((2-aminoethyl)(2-((3-chloro-2-fluorobenzyl)amino)-2-oxoethyl)amino)-2-oxoethyl)-1H-indazole-3-carboxamide] |
| 0.1 to 1 µM | NC(=O)n1cc(CC(=O)N(CC(=O)NCc2cccc(Cl)c2F)C2CC2)c2ccccc21 [Example 41, 3-(2-((2-((3-chloro-2-fluorobenzyl)amino)-2-oxoethyl)(cyclopropyl)amino)-2-oxoethyl)-1H-indole-1-carboxamide] |
| 0.1 to 1 µM | NC(=O)c1nc(CC(=O)N(CC(=O)NCc2cccc(Cl)c2F)C2CC2)n2ccccc12 [Example 42, 3-(2-((2-((3-chloro-2-fluorobenzyl)amino)-2-oxoethyl)(cyclopropyl)amino)-2-oxoethyl)imidazo[1,5-a]pyridine-1-carboxamide] |
